SMILES strings stand for the structures.

The target in assay [1] is human serum albumin (HSA) (Homo sapiens, UniProt P02768). Nature of the assay: Binding to human serum albumin by steady-state and time-resolved Trp214 fluorescence. On the procedure:
The stock solutions of HSA were freshly prepared for each experiment by gently dissolving protein in PBS pH 7.4 (tablets from Fisher) for 1 hour to allow protein to completely hydrate. The concentration of the protein in the stock solutions was determined by spectrophotometry using the molar absorption coefficient at 280 nm ε280(HSA) = 36,850 M^−1·cm^−1 [38].
In each essay, all spectroscopic measurements were carried out on individually prepared samples to ensure the same preincubation time at (37.0 ± 0.1)°C, the same % of DMSO in the final samples, and the same exposure to excitation light and to avoid the need for dilution corrections. Moreover, for a direct titration protocol, a highly concentrated stock solution of the compounds in the buffer would be required, which would raise solubility issues. Dimethylsulfoxide (DMSO, from Fisher) was used to prepare concentrated stock solutions of each complex, followed by appropriate dilution to obtain the desired concentration. The DMSO content was kept at 2% (v/v) in PBS pH 7.4 in all samples. Dilutions were carried out immediately before sample preparation.
Fluorescence measurements were performed at 25.0 ± 0.1°C. The final protein concentration in the individually prepared samples (3.72 to 5 μM) was kept constant in each assay, and the complex concentration was varied to obtain desired HSA: Ru-complex molar ratios ranging from 1 : 0.25 to 1 : 10. A control sample containing the same amount of protein and final DMSO content and with no complex was also prepared for each experiment. Appropriate blank samples with no protein but with the same complex concentrations were prepared as well for background correction.
The steady-state fluorescence intensity was measured with excitation at 295 nm, and emission spectra were collected with bandwidths of 4 nm for both excitation and emission. For Stern–Volmer plots, the fluorescence intensity with emission at 340 nm was selected because it is near the maximum emission wavelength (so the sensitivity is close to maximum), but it is further to red in relation to the water Raman scattering peak. These values were corrected for the absorption and emission inner filter effects using the absorbance recorded for each sample at the excitation and emission wavelengths used for the steady-state quenching analysis. For time-resolved fluorescence measurements, the single-photon-counting technique was used with nanoLED N-280 (Horiba Jobin Yvon) as the pulsed excitation source (280 nm) and with emission collected at 350 nm (13 nm emission bandwidth), eliminating the contribution of the emission by tyrosine residues.
The experimental fluorescence intensity decays of HSA in buffer solution can be described by a sum of exponentials:(1) It=∑i=1npiexp−t/τi, where pi and τi are the pre-exponential factors and lifetime of component i, respectively. The amplitude or normalized pre-exponential of each lifetime component αi is pi/Σipi with Σiαi = 1. Fluorescence decays were analysed by an iterative deconvolution method using the TRFA Data Processor software (version 1.4; Minsk, Belarus), and the instrument response function was obtained using scattering by a colloidal suspension of silica (Ludox®, Sigma-Aldrich) diluted in water. Criteria for judging the quality of the fit were reduced χ^2 close to 1 and a random distribution of weighted residuals and residual autocorrelation.
To evaluate changes in the quantum yield by processes affecting the fluorescence lifetimes of HSA, the amplitude-weighted mean fluorescence lifetime ( τ¯ ) was calculated using the following equation:(2) τ¯=∑i=1nαiτi.
The stock solutions of HSA were freshly prepared for each experiment by gently dissolving the protein in PBS pH 7.4 (tablets from Fisher) for 1 hour to allow the protein to completely hydrate. The concentration of protein in the stock solutions was determined by spectrophotometry using the molar absorption coefficient at 280 nm ε280(HSA) = 36,850 M^−1 cm^−1.[8] […]

Assay [2] concerns MDA-MB-231 cells. Nature of the assay: Complex uptake and subcellular distribution by ICP-MS. Type of assay: cell-based, human. Conditions: MDA-MB-231, ICP-MS 106Pd. On the procedure:
For the cellular uptake experiments, MDA-MB-231 cells (approx. 5·10^6 cells/5 mL medium) were exposed to the complexes at their respective IC50 concentrations and in two conditions (6 h and 24 h of incubation time) and then washed with ice-cold PBS and centrifuged to obtain a cellular pellet. The cytosol, membrane/particulate, cytoskeletal, and nuclear fractions were extracted using a FractionPREP™ cell fractionation system (BioVision, USA) and performed according to the manufacturer's protocol. The Ru (^101Ru) and Pd (^106Pd) contents in different fractions were measured by using Thermo X-Series Quadrupole ICP-MS (Thermo Scientific) after the digestion of the samples. Briefly, the samples were digested with ultrapure HNO3 (65%), H2O2, and H3PO4 in a closed pressurized microwave digestion unit (Mars5, CEM) with medium-pressure HP500 vessels and then diluted in ultrapure water to obtain 2.0% (v/v) nitric acid. The instrument was tuned using a multielement ICP-MS 71C standard solution (Inorganic Venture). Indium (115In) at […] was used as the internal standard.
For the cellular uptake experiments, MDA-MB-231 cells (approx. 5·10^6 cells / 5 mL medium) were exposed to the complexes at their respective IC50 concentrations and at two conditions (6 h and 24 h of incubation time)., then washed with ice-cold PBS and centrifuged to obtain a cellular pellet.[7] […]

Sequence of human serum albumin (HSA) (P02768 25-609): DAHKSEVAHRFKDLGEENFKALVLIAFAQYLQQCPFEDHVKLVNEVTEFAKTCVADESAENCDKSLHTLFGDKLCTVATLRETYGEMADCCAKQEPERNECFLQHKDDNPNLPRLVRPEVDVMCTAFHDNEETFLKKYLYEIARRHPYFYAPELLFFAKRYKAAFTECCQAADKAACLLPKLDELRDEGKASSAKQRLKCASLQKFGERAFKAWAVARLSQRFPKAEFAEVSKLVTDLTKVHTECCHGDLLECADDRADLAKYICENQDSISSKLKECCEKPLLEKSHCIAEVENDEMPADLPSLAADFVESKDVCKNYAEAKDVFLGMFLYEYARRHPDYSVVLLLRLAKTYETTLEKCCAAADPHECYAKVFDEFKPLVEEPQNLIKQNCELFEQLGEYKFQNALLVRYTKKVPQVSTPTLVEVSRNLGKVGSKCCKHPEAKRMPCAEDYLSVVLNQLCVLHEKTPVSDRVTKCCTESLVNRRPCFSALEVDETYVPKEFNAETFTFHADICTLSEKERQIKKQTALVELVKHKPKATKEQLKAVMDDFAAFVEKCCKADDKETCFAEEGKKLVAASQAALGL

With `CN1CN2CN(C)C[P]([Ru+2]([P](c3ccccc3)(c3ccccc3)c3ccccc3)[P](c3ccccc3)(c3ccccc3)c3ccccc3)(C1)C2.O=S(=O)([O-])C(F)(F)F.[Cl][Pd][Cl].c1cc[cH-]c1` [Compound 11, [RuCp(PPh3)2-µ-dmoPTA-1κP-2κ^2N,N′-PdCl2](CF3SO3)], in assay [1] (20 µM compound (1:4 HSA:compound), 24 h, λem 340 nm), the “Emission intensity of Trp214 relative to value in the absence of compound” value is recorded as ~40%. The Type of quenching result in assay [1] (HSA-Trp214 fluorescence) is ““Dynamic” and static”. Besides, in assay [1] (PBS pH 7.4/2% DMSO, 24 h at 37°C), the “Log K′B” value stood at 4.66 ± 0.07. The “K′B (conditional binding constant)” value in assay [1] (PBS pH 7.4/2% DMSO, 24 h at 37°C, fluorescence lifetime Stern–Volmer) is 4.58 ± 0.33 × 10^4 M^−1. The “Concentration above which aggregate formation with HSA is seen” value in assay [1] (absorption spectra, only in the presence of HSA) is listed as “higher than 10 µM”. In assay [1] (steady-state emission, 24 h incubation), the “Spectral shift of Trp214 emission” value is recorded as “small blueshift”. For the same molecule, the “Effect on amplitude-weighted mean fluorescence lifetime of HSA-Trp214” value in assay [1] (time-resolved fluorescence, λem 350 nm) is reported as “decreased”. The “Pd amount in the membranes” value in assay [2] is recorded as “only residual”.
